These results are taken from PubChem BioAssay (NCI).

Where “and” joins values, the source holds several entries; their conditions need not be identical. Identical values can stand only once.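 Tested at 5 concentrations; 48 h exposure; 96-well plates; endpoints linearly interpolated, else capped at highest concentration. At the GI50, growth is halved. The concentration for full growth arrest is given as TGI.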 Where a SMILES comes first, the peptide text is derived from it. [ ]: non-standard residue; d: D form. The star is where a group is joined. ξ: configuration not given here. 4Abz = Nc1ccc(C(=O)O)cc1; ξL = CC(C)CC(N)C(=O)O; NHOH = ON*

What all share (experiment): inhibition of tumour cell growth, NCI panel, 48 h
Experiment [1] deals with HS 578T breast.
Experiment [2] deals with PC-3 prostate.
The test system of experiment [3] is RXF-631 renal.
Experiment [4] has as its system SNB-78 CNS.
Experiment [5] deals with MDA-N.
In experiment [6] the test system is XF 498 CNS.

As for `Cc1cc(C)c2nc(Nc3nc(C)c(C)c(=O)[nH]3)nc(C)c2c1`, in experiment [1], the GI50 is 4.53 µM and the TGI was found to be 34.1 µM. Besides, in experiment [2], the GI50 is 2960 nM and the TGI came out at 15.1 µM.
Consider `Clc1cc(Cl)c2n[se]nc2c1`, for which the TGI in experiment [3] and in experiment [4] was above 100 µM in each case.
Turning to `O=c1cc(N2CCOCC2)oc2c(-c3ccccc3)cccc12`, the GI50 was 3.16 µM in experiment [1] and 2960 nM in experiment [2]. The TGI is > 30.6 µM and 11.4 µM in experiment [1]; 50.3 µM in experiment [5]; above 100 µM in experiment [2].
For the molecule `COc1cc(OC)cc(-c2n[nH]nc2-c2ccc3c(c2)OCO3)c1`, in experiment [1], the GI50 is 0.442 µM and the TGI is above 100 µM. Further, in experiment [2], the GI50 is 255 nM and the TGI stood at 43.7 µM.
Consider `CC(=N\O)/C(C)=N/O.CC(=N\O)/C(C)=N/O.[Pd]`, for which the GI50 in experiment [1] is 1.94 µM; in experiment [5] it was 2150 nM; in experiment [2] it was 4730 nM. Also, the TGI in experiment [1] is above 10 µM; in experiment [5], 4.87 µM; in experiment [2], above 10 µM.
As to `O=C(O)CSc1ccn(Cc2ccccc2)c1`, the TGI in experiment [1], in experiment [5] and in experiment [2] was above 100 µM each time.
As for `O=c1c2ccccc2oc2nccnc12`, the TGI in experiment [3], in experiment [4] and in experiment [6] was above 100 µM throughout.
The molecule `COc1cc(C=C2C(=O)OC(C)(C)OC2=O)cc(OC)c1OC` registered a TGI in experiment [4] above 100 µM.
As to `COc1ccc2c(c1)Cc1cc(N=[N+]([O-])c3ccc4c(c3)Cc3cc(OC)ccc3-4)ccc1-2`, the TGI in experiment [1], in experiment [5] and in experiment [2] was above 100 µM in each case.
`O=C(Nc1ccc(Cl)cc1Cl)c1c/c(=N\O)c2ccc(O)cc2o1`: the TGI in experiment [3] and in experiment [4] was above 100 µM each time.
Take `CCSc1sc(-c2ccc(C)cc2)nc1[P+](c1ccccc1)(c1ccccc1)c1ccccc1`: in experiment [1], the GI50 is 0.394 µM and the TGI worked out at 2.05 µM. In experiment [2], the GI50 was 231 nM and the TGI came to 1.14 µM.
Consider `C=C1c2c(C)nn(-c3ccccc3)c2N(C)C23C[C@@H]1C1(C)c4c(C)nn(-c5ccccc5)c4N(C)C(C)(C[C@H]12)C3` (stereo not given in full), for which the GI50 is 5.67 µM in experiment [1] and 979 nM in experiment [2]. Further, the results for the TGI in experiment [1] and in experiment [2] were 80.1 µM and above 100 µM, respectively.
With `CC1=NN(C(=O)CC(=O)Nc2ccccc2)C(=O)C1N=Nc1ccc(S(N)(=O)=O)cc1` (stereo not given), the TGI in experiment [3], in experiment [4] and in experiment [6] was above 100 µM throughout.
Take `CC(C)CC(NC(=O)[C@@H]1CCCN1C(=O)CNC(=O)c1ccc(N)cc1)C(=O)N[C@H](C)C(=O)NO` (stereo not given in full) (H-[4Abz]GP[ξL][dA]-{NHOH}): in experiment [1], the GI50 is above 100 µM and the TGI is above 100 µM. In addition, in experiment [2], the GI50 was above 100000 nM and the TGI is above 100 µM.
Consider `COc1ccc(/C=N\N2C(=O)Cc3ccccc32)cc1`, for which the results for the TGI in experiment [4] and in experiment [6] were above 100 µM and 83.9 µM, respectively.
Turning to `CCCCCc1c(C)[nH]c(/C=C2\N=C(c3ccc[nH]3)C=C2Oc2ccc(OC)cc2)c1C`, in experiment [1], the GI50 was 0.15 µM and 0.0228 µM; the TGI is 0.701 µM and 0.139 µM. In experiment [2], the GI50 is 106 nM and 27.5 nM; the TGI was found to be 1.03 µM.
As to `COC(=O)c1ccc2n[se]nc2c1`, the TGI in experiment [3], in experiment [4] and in experiment [6] was above 100 µM each time.
Consider `CC([C@H]1CCC2C3CCC4C(=O)C(NC=O)=CC[C@]4(C)C3CC[C@@]21C)N(C)C` (stereo not given in full), for which, in experiment [1], the GI50 was 4.6 µM and the TGI is 20.8 µM. Further, in experiment [2], the GI50 was 2510 nM and the TGI is 14.5 µM.
Regarding `COc1ncn(C2C=C(CO)C(O)C2O)c(=O)n1` (stereo not given), the TGI in experiment [4] is above 100 µM.
Turning to `CC(=O)OC1CC[C@@]2(C)C(CC(OC3OC(CO)C(O)C(O)C3O)[C@]3(C)C2CCC24CC23CC[C@H]4C(C)CC(O)[C@@H](O)C(C)(C)O)C1(C)C` (stereo not given in full), the results for the TGI in experiment [3] and in experiment [4] were above 50 µM and above 5 µM, respectively.
Regarding `C[N+](C)(C)CC(=O)NC(=O)N/N=C\C(CC#N)CN(Cc1ccccc1)Cc1ccccc1` (stereo not given), the TGI in experiment [3], in experiment [4] and in experiment [6] was above 100 µM each time.
Consider `O=C(CCCCCCCCC(=O)OCCCn1cc(C(=O)NC(=O)OCc2ccccc2)c(=O)[nH]c1=O)OCCCn1cc(C(=O)NC(=O)OCc2ccccc2)c(=O)[nH]c1=O`, for which the TGI in experiment [3] and in experiment [4] was above 100 µM each time.
In the case of `COc1cccc(-n2cnc3c(N/N=C/c4ccncc4)ncnc32)c1`, the GI50 in experiment [1] was 7.47 µM; in experiment [2], above 25000 nM. Further, the TGI in experiment [1] and in experiment [2] was above 25 µM throughout.
Consider `COc1ccc(/C(C#N)=C/c2nc3c(N4CCOCC4)nc(Cl)nc3n2C)cc1OC`, for which the GI50 is below 0.01 µM in experiment [1] and below 10 nM in experiment [2]. In addition, the TGI was found to be 2.68 µM in experiment [1] and 1.52 µM in experiment [2].
As to `O=C1c2cc(Br)ccc2-c2c1c1ccccc1c(=O)n2CCCCl`, in experiment [1], the GI50 is 27.4 µM and the TGI worked out at 90.7 µM. Besides, in experiment [2], the GI50 was 18300 nM and the TGI was above 100 µM.
Consider `COc1ccc(-c2ccc(/C=N/n3cnn(CN4CCN(C)CC4)c3=S)o2)c([N+](=O)[O-])c1`, for which, in experiment [1], the GI50 is 22.5 µM and the TGI turned out to be 75.4 µM. Moreover, in experiment [2], the GI50 was 39300 nM and the TGI was above 100 µM.
